Measured values published in US20040067955A1, “Pyridazinone compound and pharmaceutical use thereof” (Fujisawa Pharmaceutical Co. Ltd., priority 2002, published 2004).

System: ddY mice
Experiment: Anticatalepsy activity in mouse (haloperidol-induced catalepsy, bar test)
Assay type: in vivo
Details: test compound 3.2 mg/kg orally, ddY mice (n=7); haloperidol 0.32 mg/kg i.p. 30 min later; measured 30 min after injection
Experimental: The test compound (3.2 mg/kg) was administered orally with ddY mice (n=7). Then, haloperidol (0.32 mg/kg) was injected intraperitoneally 30 min. after the administration of the compound. Thirty min. After the injection, the cataleptic responses of mice were measured. The forelimbs of each mouse were placed on a 3 cm high, 3 mm wide horizontal bar, and the duration of cataleptic posture was measured for up to 30 sec.

Structure (SMILES)	Manifestation rate of catalepsy (number of mouse)
CC(C)n1nc(-c2cc(Cl)c(N)nc2-c2ccc(F)cc2)ccc1=O [Example 74, 6-[6-Amino-5-chloro-2-(4-fluorophenyl)-3-pyridyl]-2-isopropyl-3(2H)-pyridazinone]	0/7

System: not given
Experiment: not given
Details: not given

Structure (SMILES)	melting point [°C]
CC(C)n1nc(-c2cc(-n3cccc3)cnc2-c2ccccc2)ccc1=O [Example 29, 2-isopropyl-6-[2-phenyl-5-(1H-pyrrol-1-yl)-3-pyridyl]-3(2H)-pyridazinone]	189 to 190
CC(C)n1nc(-c2ccc(=O)[nH]c2-c2ccccc2)ccc1=O [Example 30, 2-isopropyl-6-(6-oxo-2-phenyl-1,6-dihydro-3-pyridyl)-3(2H)-pyridazinone]	107 to 109
CC(C)n1nc(-c2cc(C(=O)NCCN3CCOCC3)cnc2-c2ccccc2)ccc1=O [Example 22, 5-(1-Isopropyl-6-oxo-1,6-dihydro-3-pyridazinyl)-N-[2-(4-morpholinyl)ethyl]-6-phenylnicotinamide]	162 to 163
CC(C)n1nc(-c2cc(C(N)=O)c(N)nc2-c2ccccc2)ccc1=O [Example 7, 2-Amino-5-(1-isopropyl-6-oxo-1,6-dihydro-3-pyridazinyl)-6-phenylnicotinamide]	> 250
CC(=O)c1cnc(-c2ccccc2)c(-c2ccc(=O)n(C(C)C)n2)c1 [Example 23, 6-(5-acetyl-2-phenyl-3-pyridyl)-2-isopropyl-3(2H)-pyridazinone]	207 to 208
CC(C)n1nc(-c2cc(I)c(N)nc2-c2ccccc2)ccc1=O [Example 35, 6-(6-amino-5-iodo-2-phenyl-3-pyridyl)-2-isopropyl-3 (2H)-pyridazinone]	196 to 197
CC(C)n1nc(-c2cc(-c3ncnn3C)c(N)nc2-c2ccccc2)ccc1=O [Example 122, 6-[6-amino-5-(1-methyl-1H-1,2,4-triazol-5-yl)-2-phenyl-3-pyridyl]-2-isopropyl-3 (2H)-pyridazinone]	253 to 254
CC(C)n1nc(-c2cc(C#N)c(=O)[nH]c2-c2ccccc2)ccc1=O [Example 1, 5-(1-isopropyl-6-oxo-1,6-dihydro-3-pyridazinyl)-2-oxo-6-phenyl-1,2-dihydro-3-pyridine-carbonitrile]	> 250
CC(C)n1nc(-c2cc(N)cnc2-c2ccccc2)ccc1=O [Example 26, 6-(5-amino-2-phenyl-3-pyridyl)-2-isopropyl-3 (2H)-pyridazinone]	147 to 148
CC(C)n1nc(-c2cc(-c3ccccc3)c(N)nc2-c2ccccc2)ccc1=O [Example 36, 6-(6-amino-2,5-diphenyl-3-pyridyl)-2-isopropyl-3 (2H)-pyridazinone]	208 to 209
CC(C)n1nc(-c2cc(Br)c(N)nc2-c2ccccc2)ccc1=O [Example 33, 6-(6-amino-5-bromo-2-phenyl-3-pyridyl)-2-isopropyl-3(2H)-pyridazinone]	174 to 176
CC(C)n1nc(-c2ccc(OCC(N)=O)nc2-c2ccccc2)ccc1=O [Example 31, 2-{[5-(1-isopropyl-6-oxo-1,6-dihydro-3-pyridazinyl)-6-phenyl-2-pyridyl]oxy}acetamide]	137 to 138
COC(=O)c1nc(-c2ccccc2)c(-c2ccc(=O)n(C(C)C)n2)cc1C#N [Example 9, methyl 3-cyano-5-(1-isopropyl-6-oxo-1,6-dihydro-3-pyridazinyl)-6-phenyl-2-pyridinecarboxylate]	136 to 138
CC(C)n1nc(-c2cc(C(=O)NCc3ccccc3)cnc2-c2ccccc2)ccc1=O [Example 16, N-Benzyl-5-(1-isopropyl-6-oxo-1,6-dihydro-3-pyridazinyl)-6-phenylnicotinamide]	205 to 206
CC(C)n1nc(-c2cc(C#N)cnc2-c2ccccc2)ccc1=O [Example 8, 5-(1-isopropyl-6-oxo-1,6-dihydro-3-pyridazinyl)-6-phenylnicotinonitrile]	133 to 135
CC(C)n1nc(-c2cc(C(=O)NCCO)cnc2-c2ccccc2)ccc1=O [Example 20, N-(2-Hydroxyethyl)-5-(1-isopropyl-6-oxo-1,6-dihydro-3-pyridazinyl)-6-phenylnicotinamide]	165 to 167

Structure (SMILES)	melting point [°C]
CNC(=O)c1cnc(-c2ccccc2)c(-c2ccc(=O)n(C(C)C)n2)c1 [Example 15, 5-(1-isopropyl-6-oxo-1,6-dihydro-3-pyridazinyl)-N-methyl-6-phenyl-nicotinamide]	212 to 213
CC(C)n1nc(-c2c(-c3ccccc3)nc(Cl)c(N)c2Cl)ccc1=O [Example 77, 6-(5-amino-4,6-dichloro-2-phenyl-3-pyridyl)-2-isopropyl-3(2H)-pyridazinone]	186 to 188
COc1nc(-c2ccccc2)c(-c2ccc(=O)n(C(C)C)n2)cc1C#N [Example 10, 5-(1-isopropyl-6-oxo-1,6-dihydro-3-pyridazinyl)-2-methoxy-6-phenylnicotinonitrile]	187 to 189
CC(C)n1nc(-c2cc(C(=O)N3CCN(C)CC3)cnc2-c2ccccc2)ccc1=O [Example 19, 2-Isopropyl-6-{5-[(4-methyl-1-piperazinyl)carbonyl]-2-phenyl-3-pyridyl}-3(2H)-pyridazinone]	165 to 166
CC(C)n1nc(-c2cc(C(N)=O)c(Cl)nc2-c2ccccc2)ccc1=O [Example 5, 2-chloro-5-(1-isopropyl-6-oxo-1,6-dihydro-3-pyridazinyl)-6-phenylnicotinamide]	199 to 200
CC(C)n1nc(-c2cc(C(=O)NCc3ccccn3)cnc2-c2ccccc2)ccc1=O [Example 17, 5-(1-Isopropyl-6-oxo-1,6-dihydro-3-pyridazinyl)-6-phenyl-N-(2-pyridylmethyl)nicotinamide]	193 to 194
CC(C)n1nc(-c2ccc(N)nc2-c2ccccc2)ccc1=O [Example 32, 6-(6-amino-2-phenyl-3-pyridyl)-2-isopropyl-3(2H)-pyridazinone]	167 to 171
CC(C)n1nc(-c2cc(C(=O)N3CCOCC3)cnc2-c2ccccc2)ccc1=O [Example 18, 2-Isopropyl-6-[5-(4-morpholinylcarbonyl)-2-phenyl-3-pyridyl]-3 (2H)-pyridazinone]	132 to 133
CC(C)n1nc(-c2cc(C#N)c(C(=O)O)nc2-c2ccccc2)ccc1=O [Example 11, 3-cyano-5-(1-isopropyl-6-oxo-1,6-dihydro-3-pyridazinyl)-6-phenyl-2-pyridinecarboxylic acid]	196 to 198
CC(C)n1nc(-c2cc(Cl)c(N)nc2-c2ccccc2)ccc1=O [Example 34, 6-(6-amino-5-chloro-2-phenyl-3-pyridyl)-2-isopropyl-3 (2H)-pyridazinone]	207 to 208
CC(C)n1nc(-c2cc(C(N)=O)cnc2-c2ccccc2)ccc1=O [Example 6, 5-(1-isopropyl-6-oxo-1,6-dihydro-3-pyridazinyl)-6-phenylnicotinamide]	229 to 230
CC(C)n1nc(-c2cc(C#N)c(Cl)nc2-c2ccccc2)ccc1=O [Example 2, 2-chloro-5-(1-isopropyl-6-oxo-1,6-dihydro-3-pyridazinyl)-6-phenylnicotinonitrile]	191 to 192
CC(C)n1nc(-c2cc(C#N)c(C(N)=O)nc2-c2ccccc2)ccc1=O [Example 12, 3-cyano-5-(1-isopropyl-6-oxo-1,6-dihydro-3-pyridazinyl)-6-phenyl-2-pyridinecarboxamide]	221 to 223
COC(=O)c1cc(-c2ccc(=O)n(C(C)C)n2)c(-c2ccccc2)nc1OCC(N)=O [Example 50, Methyl 2-carbamoylmethoxy-5-(1-isopropyl-6-oxo-1,6-dihydro-3-pyridazinyl)-6-phenylnicotinate]	183 to 184
CC(C)n1nc(-c2cc(C(=O)O)c(=O)[nH]c2-c2ccccc2)ccc1=O [Example 13, 5-(1-isopropyl-6-oxo-1,6-dihydro-3-pyridazinyl)-2-oxo-6-phenyl-1,2-dihydro-3-pyridinecarboxylic acid]	212 to 215
CC(=O)Nc1cnc(-c2ccccc2)c(-c2ccc(=O)n(C(C)C)n2)c1 [Example 28, N-[5-(1-Isopropyl-6-oxo-1,6-dihydro-3-pyridazinyl)-6-phenyl-3-pyridyl]acetamide]	207 to 208

Target: human A2a receptor (Homo sapiens, UniProt P29274)
Sequence (P29274 whole entry): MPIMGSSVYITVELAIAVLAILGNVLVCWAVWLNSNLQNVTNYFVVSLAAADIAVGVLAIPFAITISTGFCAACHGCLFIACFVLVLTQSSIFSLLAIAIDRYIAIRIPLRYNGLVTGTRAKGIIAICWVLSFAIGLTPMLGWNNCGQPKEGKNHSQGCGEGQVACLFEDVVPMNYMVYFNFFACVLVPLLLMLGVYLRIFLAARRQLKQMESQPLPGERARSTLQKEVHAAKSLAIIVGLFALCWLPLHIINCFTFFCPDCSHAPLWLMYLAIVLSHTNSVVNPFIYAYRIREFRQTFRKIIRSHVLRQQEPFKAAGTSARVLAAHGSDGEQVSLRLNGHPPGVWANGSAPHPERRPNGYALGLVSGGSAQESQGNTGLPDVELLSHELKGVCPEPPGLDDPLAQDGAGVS
Experiment: Adenosine antagonistic activity: radioligand binding with [3H]CGS 21680 (20 nM)
Details: not given
Experimental: (§1) The adenosine antagonistic activity [Ki(nM)] of the test compound was examined by radioligand binding techniques using 8-cyclopentyl-1,3-dipropylxanthine, [dipropyl-2,3-^3H (N)] ([^3H]DPCPX, 4.5 nM) for human A1 receptor and [^3H]CGS 21680 (20 nM) for human A2a receptor.

Structure (SMILES)	Ki [nM]
CC(C)n1nc(-c2cc(Cl)c(N)nc2-c2ccc(F)cc2)ccc1=O [Example 74, 6-[6-Amino-5-chloro-2-(4-fluorophenyl)-3-pyridyl]-2-isopropyl-3(2H)-pyridazinone]	1.28
CC(C)n1nc(-c2cc(-c3nc(-c4ccccc4)cs3)c(N)nc2-c2ccccc2)ccc1=O [Example 40, 6-[6-Amino-5-(4-phenyl-1,3-thiazol-2-yl)-2-phenyl-3-pyridyl]-2-isopropyl-3(2H)-pyridazinone]	6.58
CC(C)n1nc(-c2cc(Br)c(N)nc2-c2ccccc2)ccc1=O [Example 33, 6-(6-amino-5-bromo-2-phenyl-3-pyridyl)-2-isopropyl-3(2H)-pyridazinone]	0.91
CC(C)n1nc(-c2cc(O)cnc2-c2ccccc2)ccc1=O [Example 53, 6-(5-hydroxy-2-phenyl-3-pyridyl)-2-isopropyl-3(2H)-pyridazinone]	3.87

Target: T1, human A1 receptor (Homo sapiens, UniProt P30542)
T1 sequence (P30542 1-326): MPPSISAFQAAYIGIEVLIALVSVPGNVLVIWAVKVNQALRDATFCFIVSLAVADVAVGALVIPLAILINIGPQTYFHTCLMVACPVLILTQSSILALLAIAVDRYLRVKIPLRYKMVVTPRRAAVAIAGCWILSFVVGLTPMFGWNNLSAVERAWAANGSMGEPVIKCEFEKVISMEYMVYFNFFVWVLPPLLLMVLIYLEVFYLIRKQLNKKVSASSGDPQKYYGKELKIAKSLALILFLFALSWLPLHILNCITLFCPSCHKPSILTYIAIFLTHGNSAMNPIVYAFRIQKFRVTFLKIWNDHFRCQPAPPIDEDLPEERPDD
Experiment: Adenosine antagonistic activity: radioligand binding with [3H]DPCPX (4.5 nM)
Details: not given
Experimental: as §1

Structure (SMILES)	Ki [nM]
CC(C)n1nc(-c2cc(Cl)c(N)nc2-c2ccc(F)cc2)ccc1=O [Example 74, 6-[6-Amino-5-chloro-2-(4-fluorophenyl)-3-pyridyl]-2-isopropyl-3(2H)-pyridazinone]	6.42
CC(C)n1nc(-c2cc(-c3nc(-c4ccccc4)cs3)c(N)nc2-c2ccccc2)ccc1=O [Example 40, 6-[6-Amino-5-(4-phenyl-1,3-thiazol-2-yl)-2-phenyl-3-pyridyl]-2-isopropyl-3(2H)-pyridazinone]	4.44
CC(C)n1nc(-c2cc(Br)c(N)nc2-c2ccccc2)ccc1=O [Example 33, 6-(6-amino-5-bromo-2-phenyl-3-pyridyl)-2-isopropyl-3(2H)-pyridazinone]	0.41
CC(C)n1nc(-c2cc(O)cnc2-c2ccccc2)ccc1=O [Example 53, 6-(5-hydroxy-2-phenyl-3-pyridyl)-2-isopropyl-3(2H)-pyridazinone]	0.43
